Values joined by “and” are separate entries in the source; they are usually repeats but may differ in a detail not shown here. Equal values may be shown once.
Test system: 186277-243-T-J2-PDC complex spheroids, viability
Experiment: Anticancer human tumor 186277-243-T-J2-PDC patient-derived colon adenocarcinoma cell line growth inhibition [RAS]
Conditions: for viability, T/C: stronger effect = lower value; for IC50: curve of first compound
Excerpt: RAS pathway inhibitors in Combinations in Complex Spheroids
A high-throughput screen of multi-cell type tumor spheroids was designed to identify active combinations of RAS pathway inhibitors and targeted small molecules. Complex spheroids include a stromal component modeled by human endothelial cells (HUVEC) and fibroblasts modeled by human mesenchymal stem cells (MSCs). The concentration ranges selected for each drug and investigational agent were based upon clinically achievable concentrations if the clinical Cmax of the agent was known.
Compounds. The drugs and investigational agents: abemaciclib (NSC768073), cobimetinib (NSC768068), divarasib (GDC6063, NSC841802), docetaxel (NSC628503), GDC-1971 (RLY-1971, NSC841576), gemcitabine (NSC613327), inavolisib (NSC800729), ipatasertib (NSC767898), KB-0742 (NSC834161), MRTX-1133 (NSC836407), osimertinib (NSC779217), RMC-4630 (NSC839698), RMC-6236 (NSC851965), RMC-6291 (NSC852671), Ro-3306 (NSC812927), sapanisertib (NSC764658), SN-38 (NSC673596), staurosporine (NSC755774), SY5609 (NSC837396), and tovorafenib (DAY101, NSC766906), were obtained from the National Cancer Institute (NCI) Developmental Therapeutics Program Chemical Repository. The FDA-approved anticancer drug set is available from the NCI Developmental Therapeutics Program. […] The stock solutions were prepared in dimethyl sulfoxide (DMSO, Sigma-Aldrich, St. Louis, MO, cat. D2650) at 800-fold the tested concentration and stored at -70 degrees C prior to their use. All drugs and investigational agents were tested over a range starting from a high concentration at or near the clinical Cmax and decreasing in half-log increments. If the clinical Cmax for an agent had not been determined, the highest concentration tested was 10 microM.
Cell Culture. All cells were maintained in an incubator at 37 degrees C and 5% CO2 with 95% humidity. The PDC lines were cultured according to standard operating procedures established by the NCI PDMR. All PDCs were thawed and cultured in Matrigel-coated flasks prepared with a working solution of 1X Ham's F-12 nutrient mix, without supplementation (Invitrogen, Waltham, MA, cat. 11765054), 100 U/mL penicillin-streptomycin (Invitrogen, cat. 15140122), and 2.5% Matrigel (Corning Inc., Corning, NY, cat. 354248) for the first three passages. The 362531-283-R-J2-PDC and 782815-120-R-J1-PDC lines were cultured in 6C/Colon 1B media, which includes advanced DMEM/F-12 (Thermo Fisher Scientific, cat. 12634028), 10 mM HEPES (Thermo Fisher Scientific, cat. 15630080), 1X GlutaMAX supplement (Thermo Fisher Scientific, cat. 35050061), 0.1 mg/mL primocin (InvivoGen, San Diego, CA, cat. ant-pm-2), 10% defined fetal bovine serum, heat inactivated (HyClone Laboratories Inc., Logan, UT, cat. SH30070.03HI), 50% L-WRN conditioned media (ATCC, cat. CRL-3276), 1.25 mM N-Acetyl-L-cysteine (Sigma-Aldrich, cat. A9165), 10 mM nicotinamide (Sigma-Aldrich, cat. N0636), 1X B-27 supplement (Thermo Fisher Scientific, cat. 17504044), 1X N-2 supplement (Thermo Fisher Scientific, cat. 17502048), 50 ng/mL human EGF (Thermo Fisher Scientific, cat. PHG0311), and 10 microM Y-27632 dihydrochloride (Tocris Bioscience, cat. 1254). The K12877-001-R-J1-PDC line was cultured in 6I media, which includes all 6C/Colon 1B media plus 10 ng/mL human FGF-10 (PeproTech, cat. 100-26), 1 ng/mL human FGF-2 (PeproTech, cat. 100-18B), 1 µM prostaglandin E2 (Tocris Bioscience, cat. 2296), […] hydrocortisone (Sigma-Aldrich, cat. H4001), and […] bovine insulin (Sigma-Aldrich, cat. I6634). The K86415-001-R-J1-PDC line was cultured in 6D media, which includes all 6C/Colon 1B media components minus the L-WRN conditioned media. The 485176-168-R4-J1-PDC was cultured in PANC media, which includes all 6C/Colon 1B media plus 100 ng/mL human FGF-10 (PeproTech, cat. 100-26), 500 nM SB-431542 (Selleckchem, cat. S1067), and 10 nM gastrin (Tocris Bioscience, cat. 3006). […]
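Also: spheroids exposed to compounds for 7 days before viability read.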

## CC(C)n1nc(-c2ccc3oc(N)nc3c2)c2c(N)ncnc21
Compound 0.000316 µM
  viability, T/C: 107% [middle of 4 runs]
Compound 0.001 µM
  viability, T/C: 96.7% [middle of 4 runs]
Compound 0.00316 µM
  viability, T/C: 101% and 98% and 107% (2×)
Compound 0.01 µM
  viability, T/C: 92.9% [middle of 4 runs]
Compound 0.1 µM
  viability, T/C: 47.7% [middle of 4 runs]

## NC1c2ccccc2OC12CCN(c1cnc3c(N4CCCc5ncccc54)n[nH]c3n1)CC2 (configuration not stated) + CCn1c(-c2cc(N3CCN(C)CC3)cnc2C(C)OC)c2c3cc(ccc31)-c1csc(n1)CC(NC(=O)C1CC1C)C(=O)N1CCCC(N1)C(=O)OCC(C)(C)C2
Second compound 0.000949 µM
  IC50: 54.2 nM
Second compound 0.003 µM
  IC50: < 31.6 nM
Second compound 0.00949 µM
  IC50: < 31.6 nM
Second compound 0.03 µM
  IC50: < 31.6 nM
Second compound 0.0949 µM
  IC50: < 31.6 nM
Second compound 0.3 µM
  IC50: < 31.6 nM
Second compound 0.000949 µM, first compound 0.0316 µM
  viability, T/C: 70.1%
Second compound 0.000949 µM, first compound 0.1 µM
  viability, T/C: 26.9%
Second compound 0.000949 µM, first compound 0.316 µM
  viability, T/C: 6.05%
Second compound 0.000949 µM, first compound 1 µM
  viability, T/C: 3.49%
Second compound 0.000949 µM, first compound 3.16 µM
  viability, T/C: 2.69%
Second compound 0.000949 µM, first compound 10 µM
  viability, T/C: 2.5%
Second compound 0.003 µM, first compound 0.0316 µM
  viability, T/C: 25.1%
Second compound 0.003 µM, first compound 0.1 µM
  viability, T/C: 6.27%
Second compound 0.003 µM, first compound 0.316 µM
  viability, T/C: 3.3%
Second compound 0.003 µM, first compound 1 µM
  viability, T/C: 2.57%
Second compound 0.003 µM, first compound 3.16 µM
  viability, T/C: 2.3%
Second compound 0.003 µM, first compound 10 µM
  viability, T/C: 1.8%
Second compound 0.00949 µM, first compound 0.0316 µM
  viability, T/C: 7.02%
Second compound 0.00949 µM, first compound 0.1 µM
  viability, T/C: 3.42%
Second compound 0.00949 µM, first compound 0.316 µM
  viability, T/C: 2.63%
Second compound 0.00949 µM, first compound 1 µM
  viability, T/C: 1.94%
Second compound 0.00949 µM, first compound 3.16 µM
  viability, T/C: 1.79%
Second compound 0.00949 µM, first compound 10 µM
  viability, T/C: 1.61%
Second compound 0.03 µM, first compound 0.0316 µM
  viability, T/C: 3.98%
Second compound 0.03 µM, first compound 0.1 µM
  viability, T/C: 3.86%
Second compound 0.03 µM, first compound 0.316 µM
  viability, T/C: 2.26%
Second compound 0.03 µM, first compound 1 µM
  viability, T/C: 1.79%
Second compound 0.03 µM, first compound 3.16 µM
  viability, T/C: 3.5%
Second compound 0.03 µM, first compound 10 µM
  viability, T/C: 1.52%
Second compound 0.0949 µM, first compound 0.0316 µM
  viability, T/C: 3.58%
Second compound 0.0949 µM, first compound 0.1 µM
  viability, T/C: 2.71%
Second compound 0.0949 µM, first compound 0.316 µM
  viability, T/C: 2.03%
Second compound 0.0949 µM, first compound 1 µM
  viability, T/C: 1.94%
Second compound 0.0949 µM, first compound 3.16 µM
  viability, T/C: 1.81%
Second compound 0.0949 µM, first compound 10 µM
  viability, T/C: 1.53%
Second compound 0.3 µM, first compound 0.0316 µM
  viability, T/C: 3.17%
Second compound 0.3 µM, first compound 0.1 µM
  viability, T/C: 2.52%
Second compound 0.3 µM, first compound 0.316 µM
  viability, T/C: 1.83%
Second compound 0.3 µM, first compound 1 µM
  viability, T/C: 1.56%
Second compound 0.3 µM, first compound 3.16 µM
  viability, T/C: 1.77%
Second compound 0.3 µM, first compound 10 µM
  viability, T/C: 1.56%
